# Test results published in publication PMC10337138 (Acta Neuropathologica Communications, 2023).
# How the values were obtained:
# Settings in all cases: 1 mM ATP; inhibitor
# MAP4K1/HPK1 = MAP4K1/HPK1 (Homo sapiens, UniProt Q92918)
# Method: (§1) Kinase selectivity panel Kinome profiling was conducted by AssayQuant Technologies (Marlboro, MA) using Sox chromophore technology and Sox-based peptide substrates developed for human kinases in a 384-well format. Compounds were tested at 1 µM in the presence of 1 mM ATP.
# CDC42BPA/MRCKA = CDC42BPA/MRCKA (Homo sapiens, UniProt Q5VT25)
# Method: as §1
# MNK1 = target: T1, MNK1 (Homo sapiens, UniProt Q9BUB5)
# T1 construct: gene MKNK1
# Method: as §1
# TSSK3 = TSSK3 (Homo sapiens, UniProt Q96PN8)
# Method: as §1
# STK3/MST2 = STK3/MST2 (Homo sapiens, UniProt Q13188)
# Method: as §1
# IGF1R = IGF1R (Homo sapiens, UniProt P08069)
# Method: as §1
# TSSK2 = TSSK2 (Homo sapiens, UniProt Q96PF2)
# Method: as §1
# CDK5/P25 = CDK5/P25 (Homo sapiens, UniProt Q00535)
# Method: as §1
# MYO3A = MYO3A (Homo sapiens, UniProt Q8NEV4)
# Method: as §1
# MAPK9/JNK2 = MAPK9/JNK2 (Homo sapiens, UniProt P45984)
# Method: as §1
# CDK14 = CDK14 (Homo sapiens, UniProt O94921)
# Method: as §1
# MERTK/MER = MERTK/MER (Homo sapiens, UniProt Q12866)
# Method: as §1
# MYLK3 = MYLK3 (Homo sapiens, UniProt Q32MK0)
# Method: as §1
# BRSK1 = BRSK1 (Homo sapiens, UniProt Q8TDC3)
# Method: as §1
# HIPK1 = HIPK1 (Homo sapiens, UniProt Q86Z02)
# Method: as §1
# MAP3K14 = MAP3K14 (Homo sapiens, UniProt Q99558)
# Method: as §1
# CTK = target: T2, CTK (Homo sapiens, UniProt P42679)
# T2 construct: gene MATK
# Method: as §1
# NDR1 = target: T3, NDR1 (Homo sapiens, UniProt Q15208)
# T3 construct: gene STK38
# Method: as §1
# PIM1 = PIM1 (Homo sapiens, UniProt P11309)
# Method: as §1
# DCLK1/DCAML1 = DCLK1/DCAML1 (Homo sapiens, UniProt O15075)
# Method: as §1
# AXL = AXL (Homo sapiens, UniProt P30530)
# Method: as §1
# FLT1 = FLT1 (Homo sapiens, UniProt P17948)
# Method: as §1
# TTK = TTK (Homo sapiens, UniProt P33981)
# Method: as §1
# PRKD2 = PRKD2 (Homo sapiens, UniProt Q9BZL6)
# Method: as §1
# FLT4 = FLT4 (Homo sapiens, UniProt P35916)
# Method: as §1
# CHEK2/CHK2 = CHEK2/CHK2 (Homo sapiens, UniProt O96017)
# Method: as §1
# PRKG1 = PRKG1 (Homo sapiens, UniProt Q13976)
# Method: as §1
# MAPK7/ERK5 = MAPK7/ERK5 (Homo sapiens, UniProt Q13164)
# Method: as §1
# STK25/YSK1 = STK25/YSK1 (Homo sapiens, UniProt O00506)
# Method: as §1
# NUAK1 = NUAK1 (Homo sapiens, UniProt O60285)
# Method: as §1
# MAPK1/ERK2 = MAPK1/ERK2 (Homo sapiens, UniProt P28482)
# Method: as §1
# RET = RET (Homo sapiens, UniProt P07949)
# Method: as §1
# MAPK3/ERK1 = MAPK3/ERK1 (Homo sapiens, UniProt P27361)
# Method: as §1
# PTK2 = PTK2 (Homo sapiens, UniProt Q05397)
# Method: as §1
# PRKAA1/AMPK111 = PRKAA1/AMPK111 (Homo sapiens, UniProt Q13131)
# Method: as §1
# RPS6KA2/RSK3 = RPS6KA2/RSK3 (Homo sapiens, UniProt Q15349)
# Method: as §1
# ABL1 = ABL1 (Homo sapiens, UniProt P00519)
# Method: as §1
# PLK4 = PLK4 (Homo sapiens, UniProt O00444)
# Method: as §1
# Sequence of PRKD2 (Q9BZL6 whole entry): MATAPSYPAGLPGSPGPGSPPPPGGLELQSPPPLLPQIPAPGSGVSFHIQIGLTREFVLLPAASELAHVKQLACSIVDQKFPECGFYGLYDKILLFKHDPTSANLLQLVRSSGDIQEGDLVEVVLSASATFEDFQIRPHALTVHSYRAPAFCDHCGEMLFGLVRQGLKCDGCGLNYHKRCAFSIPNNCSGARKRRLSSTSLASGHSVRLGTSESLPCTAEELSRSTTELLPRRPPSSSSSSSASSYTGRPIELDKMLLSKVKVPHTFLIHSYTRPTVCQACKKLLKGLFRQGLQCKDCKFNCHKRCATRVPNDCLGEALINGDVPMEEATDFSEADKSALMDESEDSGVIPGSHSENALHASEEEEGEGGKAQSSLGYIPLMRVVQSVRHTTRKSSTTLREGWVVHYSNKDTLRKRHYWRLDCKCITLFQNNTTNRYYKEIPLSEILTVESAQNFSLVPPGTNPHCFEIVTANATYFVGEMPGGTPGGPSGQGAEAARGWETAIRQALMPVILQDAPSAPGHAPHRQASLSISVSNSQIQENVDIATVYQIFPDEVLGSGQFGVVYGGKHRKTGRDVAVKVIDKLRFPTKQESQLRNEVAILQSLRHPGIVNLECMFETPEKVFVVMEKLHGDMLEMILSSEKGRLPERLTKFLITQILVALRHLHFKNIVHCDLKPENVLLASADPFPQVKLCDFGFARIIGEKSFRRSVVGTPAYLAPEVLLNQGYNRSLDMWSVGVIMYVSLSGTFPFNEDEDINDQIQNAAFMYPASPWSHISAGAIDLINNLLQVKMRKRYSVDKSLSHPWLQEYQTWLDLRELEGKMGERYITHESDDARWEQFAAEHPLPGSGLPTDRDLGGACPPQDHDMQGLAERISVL
# Sequence of RET (P07949 whole entry): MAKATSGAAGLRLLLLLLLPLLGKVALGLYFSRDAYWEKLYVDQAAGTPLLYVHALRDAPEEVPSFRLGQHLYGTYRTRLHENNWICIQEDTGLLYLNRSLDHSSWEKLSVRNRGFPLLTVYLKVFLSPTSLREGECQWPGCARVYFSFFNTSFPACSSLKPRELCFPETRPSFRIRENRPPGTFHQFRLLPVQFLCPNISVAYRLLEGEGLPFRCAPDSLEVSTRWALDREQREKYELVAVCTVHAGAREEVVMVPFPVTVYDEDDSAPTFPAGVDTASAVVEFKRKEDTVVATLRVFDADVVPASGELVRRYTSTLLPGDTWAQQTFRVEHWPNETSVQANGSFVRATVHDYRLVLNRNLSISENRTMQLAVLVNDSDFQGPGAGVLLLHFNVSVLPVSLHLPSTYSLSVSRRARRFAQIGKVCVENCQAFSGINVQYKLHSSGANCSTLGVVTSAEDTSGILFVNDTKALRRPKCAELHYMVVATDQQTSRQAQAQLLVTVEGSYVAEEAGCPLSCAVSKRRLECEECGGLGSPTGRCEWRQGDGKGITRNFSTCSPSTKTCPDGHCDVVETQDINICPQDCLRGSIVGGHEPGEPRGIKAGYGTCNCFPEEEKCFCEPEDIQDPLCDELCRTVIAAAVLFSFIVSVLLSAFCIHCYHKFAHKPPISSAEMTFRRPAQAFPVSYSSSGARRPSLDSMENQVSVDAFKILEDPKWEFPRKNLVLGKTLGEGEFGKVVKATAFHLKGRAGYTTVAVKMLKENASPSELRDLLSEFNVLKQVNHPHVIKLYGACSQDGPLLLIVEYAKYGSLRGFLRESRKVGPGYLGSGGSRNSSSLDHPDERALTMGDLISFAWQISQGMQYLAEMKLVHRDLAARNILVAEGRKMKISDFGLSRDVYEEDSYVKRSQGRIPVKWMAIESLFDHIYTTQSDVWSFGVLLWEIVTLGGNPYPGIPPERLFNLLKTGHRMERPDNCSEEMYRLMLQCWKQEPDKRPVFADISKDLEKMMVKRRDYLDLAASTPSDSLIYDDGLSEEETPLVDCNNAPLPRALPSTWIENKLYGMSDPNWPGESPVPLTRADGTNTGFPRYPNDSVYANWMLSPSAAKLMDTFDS
# T3 sequence (Q15208 whole entry): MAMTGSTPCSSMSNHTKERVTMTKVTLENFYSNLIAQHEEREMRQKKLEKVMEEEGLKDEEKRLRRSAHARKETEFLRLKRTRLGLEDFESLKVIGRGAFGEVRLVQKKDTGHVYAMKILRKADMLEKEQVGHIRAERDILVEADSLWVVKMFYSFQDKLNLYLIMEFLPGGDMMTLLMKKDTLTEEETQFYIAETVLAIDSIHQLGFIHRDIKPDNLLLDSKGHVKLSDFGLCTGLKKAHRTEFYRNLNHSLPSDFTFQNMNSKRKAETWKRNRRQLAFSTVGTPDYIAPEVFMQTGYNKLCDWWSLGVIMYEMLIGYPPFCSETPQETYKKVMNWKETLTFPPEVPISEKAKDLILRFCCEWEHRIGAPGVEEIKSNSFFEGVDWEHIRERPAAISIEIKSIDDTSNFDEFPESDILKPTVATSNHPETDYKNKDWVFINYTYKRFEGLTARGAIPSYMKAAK
# Sequence of STK25/YSK1 (O00506 whole entry): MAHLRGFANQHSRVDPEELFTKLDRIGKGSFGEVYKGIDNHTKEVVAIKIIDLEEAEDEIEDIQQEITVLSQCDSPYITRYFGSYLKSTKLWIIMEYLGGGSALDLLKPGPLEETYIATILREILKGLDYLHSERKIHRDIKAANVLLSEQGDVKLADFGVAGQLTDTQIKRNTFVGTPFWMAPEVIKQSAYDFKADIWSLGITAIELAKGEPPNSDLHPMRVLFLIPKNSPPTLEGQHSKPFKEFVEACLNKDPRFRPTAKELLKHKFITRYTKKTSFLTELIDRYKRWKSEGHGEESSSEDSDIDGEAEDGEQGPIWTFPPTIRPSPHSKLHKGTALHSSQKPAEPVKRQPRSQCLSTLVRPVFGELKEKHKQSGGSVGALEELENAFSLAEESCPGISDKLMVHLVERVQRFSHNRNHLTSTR
# Sequence of MYLK3 (Q32MK0 whole entry): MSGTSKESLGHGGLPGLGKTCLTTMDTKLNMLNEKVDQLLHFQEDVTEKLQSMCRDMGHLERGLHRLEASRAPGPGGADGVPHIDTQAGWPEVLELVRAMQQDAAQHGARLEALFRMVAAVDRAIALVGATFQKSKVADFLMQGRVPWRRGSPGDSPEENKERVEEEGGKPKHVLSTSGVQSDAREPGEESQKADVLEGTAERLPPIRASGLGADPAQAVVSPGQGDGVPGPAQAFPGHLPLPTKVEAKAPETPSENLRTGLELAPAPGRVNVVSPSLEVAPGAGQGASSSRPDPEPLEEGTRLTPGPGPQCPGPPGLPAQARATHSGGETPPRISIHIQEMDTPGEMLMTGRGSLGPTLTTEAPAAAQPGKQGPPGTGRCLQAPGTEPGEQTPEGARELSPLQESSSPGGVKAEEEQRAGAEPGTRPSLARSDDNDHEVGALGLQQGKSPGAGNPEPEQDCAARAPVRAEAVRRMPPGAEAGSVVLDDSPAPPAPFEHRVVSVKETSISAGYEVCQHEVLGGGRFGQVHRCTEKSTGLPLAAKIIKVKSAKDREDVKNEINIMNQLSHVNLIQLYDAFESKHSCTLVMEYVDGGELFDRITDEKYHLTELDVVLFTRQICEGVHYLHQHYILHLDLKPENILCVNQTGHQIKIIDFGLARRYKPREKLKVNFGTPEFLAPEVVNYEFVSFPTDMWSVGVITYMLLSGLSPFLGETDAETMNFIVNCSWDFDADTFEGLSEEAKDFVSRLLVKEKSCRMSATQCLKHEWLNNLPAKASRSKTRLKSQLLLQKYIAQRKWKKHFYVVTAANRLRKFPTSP
# Sequence of CDK14 (O94921 whole entry): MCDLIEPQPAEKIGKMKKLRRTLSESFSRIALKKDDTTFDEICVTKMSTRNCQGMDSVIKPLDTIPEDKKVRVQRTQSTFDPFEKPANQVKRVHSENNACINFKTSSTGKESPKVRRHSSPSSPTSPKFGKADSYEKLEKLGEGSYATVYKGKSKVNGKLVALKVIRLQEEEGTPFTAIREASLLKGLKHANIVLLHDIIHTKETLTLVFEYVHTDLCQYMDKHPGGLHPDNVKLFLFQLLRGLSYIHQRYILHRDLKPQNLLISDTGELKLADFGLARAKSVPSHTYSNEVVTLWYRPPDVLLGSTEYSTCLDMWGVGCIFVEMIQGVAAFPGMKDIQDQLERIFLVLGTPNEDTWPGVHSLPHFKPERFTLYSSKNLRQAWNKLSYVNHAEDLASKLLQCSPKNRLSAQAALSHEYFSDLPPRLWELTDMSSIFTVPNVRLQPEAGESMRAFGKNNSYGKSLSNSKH
# Sequence of DCLK1/DCAML1 (O15075 whole entry): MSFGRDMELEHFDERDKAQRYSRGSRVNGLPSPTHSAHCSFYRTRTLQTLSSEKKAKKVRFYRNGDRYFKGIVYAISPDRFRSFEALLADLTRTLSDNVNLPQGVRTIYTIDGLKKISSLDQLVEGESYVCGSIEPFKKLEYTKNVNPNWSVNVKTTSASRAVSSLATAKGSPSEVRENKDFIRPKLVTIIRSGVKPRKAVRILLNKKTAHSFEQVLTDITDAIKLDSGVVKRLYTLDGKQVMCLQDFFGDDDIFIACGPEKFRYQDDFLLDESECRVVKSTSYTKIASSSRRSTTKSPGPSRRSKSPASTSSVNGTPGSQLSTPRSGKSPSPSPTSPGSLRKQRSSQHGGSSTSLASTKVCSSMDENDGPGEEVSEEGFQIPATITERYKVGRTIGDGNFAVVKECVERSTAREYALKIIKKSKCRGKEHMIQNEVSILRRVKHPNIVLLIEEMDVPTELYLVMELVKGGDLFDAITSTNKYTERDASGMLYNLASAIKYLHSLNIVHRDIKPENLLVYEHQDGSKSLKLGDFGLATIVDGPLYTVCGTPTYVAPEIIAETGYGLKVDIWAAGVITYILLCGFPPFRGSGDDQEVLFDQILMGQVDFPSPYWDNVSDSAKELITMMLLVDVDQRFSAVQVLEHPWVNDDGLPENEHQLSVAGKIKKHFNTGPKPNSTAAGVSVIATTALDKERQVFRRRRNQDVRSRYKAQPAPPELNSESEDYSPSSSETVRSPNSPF
smiles,measurement,setting,value
C=CC(=O)N1CCC[C@@H](n2nc(-c3ccc(Oc4ccccc4)cc3)c3c(N)ncnc32)C1 [Ibrutinib],"1 µM GBD00276 (ibrutinib), % inhibition",MAP4K1/HPK1,8.34%
same,"1 µM GBD00276 (ibrutinib), % inhibition",CDC42BPA/MRCKA,-8.638%
same,"1 µM GBD00276 (ibrutinib), % inhibition",MNK1,-4.408%
same,"1 µM GBD00276 (ibrutinib), % inhibition",TSSK3,-3.43%
same,"1 µM GBD00276 (ibrutinib), % inhibition",STK3/MST2,-10.97%
same,"1 µM GBD00276 (ibrutinib), % inhibition",IGF1R,1.391%
same,"1 µM GBD00276 (ibrutinib), % inhibition",TSSK2,9.261%
same,"1 µM GBD00276 (ibrutinib), % inhibition",CDK5/P25,18.4%
same,"1 µM GBD00276 (ibrutinib), % inhibition",MYO3A,-10.26%
same,"1 µM GBD00276 (ibrutinib), % inhibition",MAPK9/JNK2,-5.789%
same,"1 µM GBD00276 (ibrutinib), % inhibition",CDK14,3.829%
same,"1 µM GBD00276 (ibrutinib), % inhibition",MERTK/MER,2.725%
same,"1 µM GBD00276 (ibrutinib), % inhibition",MYLK3,0.8658%
same,"1 µM GBD00276 (ibrutinib), % inhibition",BRSK1,2.387%
same,"1 µM GBD00276 (ibrutinib), % inhibition",HIPK1,7.799%
same,"1 µM GBD00276 (ibrutinib), % inhibition",MAP3K14,-11.44%
same,"1 µM GBD00276 (ibrutinib), % inhibition",CTK,-75.13%
same,"1 µM GBD00276 (ibrutinib), % inhibition",NDR1,6.051%
same,"1 µM GBD00276 (ibrutinib), % inhibition",PIM1,0.08032%
same,"1 µM GBD00276 (ibrutinib), % inhibition",DCLK1/DCAML1,-29.46%
same,"1 µM GBD00276 (ibrutinib), % inhibition",AXL,-6.462%
same,"1 µM GBD00276 (ibrutinib), % inhibition",FLT1,31.87%
same,"1 µM GBD00276 (ibrutinib), % inhibition",TTK,9.751%
same,"1 µM GBD00276 (ibrutinib), % inhibition",PRKD2,-18.67%
same,"1 µM GBD00276 (ibrutinib), % inhibition",FLT4,38.81%
same,"1 µM GBD00276 (ibrutinib), % inhibition",CHEK2/CHK2,-10.68%
same,"1 µM GBD00276 (ibrutinib), % inhibition",PRKG1,-6.849%
same,"1 µM GBD00276 (ibrutinib), % inhibition",MAPK7/ERK5,-0.1217%
same,"1 µM GBD00276 (ibrutinib), % inhibition",STK25/YSK1,10.23%
same,"1 µM GBD00276 (ibrutinib), % inhibition",NUAK1,-1.079%
same,"1 µM GBD00276 (ibrutinib), % inhibition",MAPK1/ERK2,-5.335%
same,"1 µM GBD00276 (ibrutinib), % inhibition",RET,15.14%
same,"1 µM GBD00276 (ibrutinib), % inhibition",MAPK3/ERK1,2.161%
same,"1 µM GBD00276 (ibrutinib), % inhibition",PTK2,-4.777%
same,"1 µM GBD00276 (ibrutinib), % inhibition",PRKAA1/AMPK111,6.623%
same,"1 µM GBD00276 (ibrutinib), % inhibition",RPS6KA2/RSK3,22.45%
same,"1 µM GBD00276 (ibrutinib), % inhibition",ABL1,-21.62%
same,"1 µM GBD00276 (ibrutinib), % inhibition",PLK4,7.389%
